According to publication PMC5867622, “Microginins from a Microcystis sp. Bloom Material Collected from the Kishon Reservoir, Israel” (Marine Drugs, 2018):
Read-outs that look alike come from different tables or passages of the source. Square brackets hold non-standard residues; d marks the D form. Peptide text beside a SMILES is read from it. * marks the point of attachment. X15 = N[C@@H](CCCCCCC(Cl)Cl)[C@H](O)C(=O)*; X6 = N[C@@H](CCCCCCCCl)[C@H](O)C(=O)*; X7 = N[C@H](CCCCCCCCl)[C@@H](O)C(=O)*; X10 = CCCCCCC[C@@H](N)[C@H](O)C(=O)*; NMeY = CN[C@@H](Cc1ccc(O)cc1)C(=O)O; X3 = CCCCCCC[C@H](NC)[C@H](O)C(=O)*; hTyr = N[C@@H](CCc1ccc(O)cc1)C(=O)O; X12 = N[C@H](CCCCCCC(Cl)Cl)CC(=O)*; X9 = CCCCCCC[C@H](N)[C@H](O)C(=O)*; NMeL = CN[CH](CC(C)C)C(=O)O; X11 = CCCCCCCC(NC)C(O)C(=O)*; X5 = NC(CCCCCCCCl)C(O)C(=O)*; NMeV = CN[C@H](C(=O)O)C(C)C; X8 = CCCCCCCC(N)C(O)C(=O)*

Columns and labels:
ACE = settings: cited from earlier work; for IC50 / Activity: ACE (ni): Table S1
APM = settings: cited from earlier work; for IC50: Table S1; for Activity: APM (ni): Table S1, 'APM, ACE-ni'
[1] = biological target: T1, porcine kidney microsomal aminopeptidase M (Sus scrofa, UniProt P15145); assay: Aminopeptidase M inhibitory assay; assay type: biochemical
T1 construct: purchased Sigma-Aldrich (St. Louis, MO, USA); host or cells: porcine kidney microsomes
T1 sequence (P15145 1-963): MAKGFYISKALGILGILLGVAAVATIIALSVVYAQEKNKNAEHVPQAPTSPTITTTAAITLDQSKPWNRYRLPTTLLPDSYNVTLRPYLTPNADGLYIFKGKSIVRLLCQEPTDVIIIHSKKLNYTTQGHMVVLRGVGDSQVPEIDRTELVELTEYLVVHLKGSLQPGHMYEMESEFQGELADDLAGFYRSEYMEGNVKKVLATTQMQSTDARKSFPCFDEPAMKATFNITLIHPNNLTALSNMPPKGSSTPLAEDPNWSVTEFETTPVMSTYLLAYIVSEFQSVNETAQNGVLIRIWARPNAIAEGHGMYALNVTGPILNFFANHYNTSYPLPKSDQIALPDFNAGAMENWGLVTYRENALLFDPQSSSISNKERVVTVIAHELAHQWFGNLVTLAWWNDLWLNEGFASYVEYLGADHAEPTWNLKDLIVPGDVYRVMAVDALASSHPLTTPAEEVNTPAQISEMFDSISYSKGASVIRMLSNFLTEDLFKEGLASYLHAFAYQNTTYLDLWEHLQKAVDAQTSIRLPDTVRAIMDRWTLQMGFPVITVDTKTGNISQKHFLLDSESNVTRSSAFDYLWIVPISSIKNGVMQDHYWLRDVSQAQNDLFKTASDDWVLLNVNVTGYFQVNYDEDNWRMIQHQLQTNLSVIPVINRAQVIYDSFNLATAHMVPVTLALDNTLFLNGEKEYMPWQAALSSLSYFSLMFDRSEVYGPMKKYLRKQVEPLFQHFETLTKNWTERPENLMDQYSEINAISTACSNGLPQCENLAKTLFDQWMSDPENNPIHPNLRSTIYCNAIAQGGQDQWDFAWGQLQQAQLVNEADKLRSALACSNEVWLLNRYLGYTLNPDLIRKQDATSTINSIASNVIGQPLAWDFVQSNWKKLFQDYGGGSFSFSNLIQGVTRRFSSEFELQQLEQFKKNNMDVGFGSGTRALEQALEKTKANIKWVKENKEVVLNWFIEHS
Experimental: Aminopeptidase M inhibitory activity was determined according to the procedure described by Ishida et al.. A reaction mixture composed of 20 μL of L-leucine-p-nitroanilide (2 mM in 0.1 M Tris-HCl buffer at pH 7.0), 50 μL of 0.1 M Tris-HCl buffer (pH 7.0) and 20 μL of test solution was added to each well of a 96-well microtiter plate. The plate was incubated at 37 °C for 5 min; thereafter, 10 μL of porcine kidney microsomal aminopeptidase M [EC Number 232-942-5, Sigma-Aldrich (St. Louis, MO, USA), […] in 3.5 M (NH4)2SO4] was added to each well, and the absorbance at 405 nm was measured for 30 min. The microginin samples were dissolved in DMSO at a concentration of 1 mg/mL, and the IC50 values were determined by analysis of a series of dilutions (from 45.5 μM to 0.00069 μM). A sigmoidal curve of the enzyme inhibition versus the concentration of the inhibitor was observed that was fit to a 4-parameter logistic model.

[2] = ref 6 (Ishida et al., Tetrahedron 2000)
[3] = ref 6 (Ishida et al., Tetrahedron 2000), read-out: Activity: APM
[4] = ref 5 (Kodani et al., FEMS Microbiol. Lett. 1999)
[5] = ref 5 (Kodani et al., FEMS Microbiol. Lett. 1999), read-out: Activity: AMP
[6] = ref 2 (Ishida et al., Tetrahedron 1997)
[7] = ref 2 (Ishida et al., Tetrahedron 1997), read-out: Activity: APM
[8] = ref 4 (Ishida et al., Tetrahedron 1998)

## CCCCCCC[C@H](NC)[C@H](O)C(=O)N[C@H](C(=O)N(C)[C@H](C(=O)N(C)[C@@H](Cc1ccc(O)cc1)C(=O)N[C@@H](Cc1ccc(O)cc1)C(=O)O)C(C)C)C(C)C [Microginin 478] (X3-V[NMeV][NMeY]Y-OH)
ACE; [2]
  IC50: 13.2 µM
APM; [3]
  IC50: 132 µM

## C[C@H](NC(=O)C(O)C(N)CCCCCCCCl)C(=O)N1CCC[C@H]1C(=O)N[C@@H](Cc1ccc(O)cc1)C(=O)N[C@@H](Cc1ccc(O)cc1)C(=O)O (some centres unmarked) [Microginin T1] (X5-APYY-OH)
ACE; [4]
  IC50: 6.8 µM
APM; [5]
  IC50: 2.7 µM

## CCCCCCC[C@H](NC)[C@H](O)C(=O)N[C@@H](Cc1ccc(O)cc1)C(=O)N(C)[C@H](C(=O)N(C)[C@@H](Cc1ccc(O)cc1)C(=O)N1CCC[C@@H]1C(=O)N[C@@H](Cc1ccc(O)cc1)C(=O)O)C(C)C [Microginin 51-B] (X3-Y[NMeV][NMeY][dP]Y-OH)
ACE; [2]
  Activity: ACE (ni): ni
APM; [2]
  Activity: APM (ni): ni

## CC[C@H](C)[C@H](NC(=O)[C@H](O)[C@H](N)CCCCCCCCl)C(=O)N(C)[C@@H](CC(C)C)C(=O)N1CCC[C@H]1C(=O)N[C@@H](Cc1ccc(O)cc1)C(=O)O [Microginin 91-D] (X7-I[NMeL]PY-OH)
ACE; [2]
  Activity: ACE (ni): ni
APM; [3]
  IC50: 43.4 µM

## CC(C)[C@H](NC(=O)[C@@H](O)[C@@H](N)CCCCCCC(Cl)Cl)C(=O)N(C)[C@H](C(=O)N(C)[C@@H](Cc1ccc(O)cc1)C(=O)N1CCC[C@H]1C(=O)N[C@@H](Cc1ccc(O)cc1)C(=O)O)C(C)C [Microginin 299-B] (X15-V[NMeV][NMeY]PY-OH)
ACE; [6]
  Activity: ACE (ni): ni
APM; [7]
  IC50: 7.1 µM

## CC(C)C[C@H](NC(=O)[C@H](Cc1ccc(O)cc1)NC(=O)C[C@H](N)CCCCCCC(Cl)Cl)C(=O)N(C)[C@@H](Cc1ccc(O)cc1)C(=O)N1CCC[C@H]1C(=O)O [Microginin 99-B] (X12-YL[NMeY]P-OH)
ACE; [8]
  Activity: ACE (ni): ni
APM; [8]
  Activity: APM (ni): ni

## CC(C)[C@H](NC(=O)[C@@H](O)[C@@H](N)CCCCCCCCl)C(=O)N(C)[C@H](C(=O)N(C)[C@@H](Cc1ccc(O)cc1)C(=O)N1CCC[C@H]1C(=O)N[C@@H](Cc1ccc(O)cc1)C(=O)O)C(C)C [Microginin 299-A] (X6-V[NMeV][NMeY]PY-OH)
ACE; [6]
  Activity: ACE (ni): ni
APM; [7]
  IC50: 5.2 µM

## CCCCCCCC(NC)C(O)C(=O)NC(Cc1ccc(O)cc1)C(=O)N(C)C(CC(C)C)C(=O)N1CCCC1C(=O)NC(Cc1ccc(O)cc1)C(=O)O (centres unmarked) [Microginin KR767] (X11-Y[NMeL]PY-OH; configuration not given here)
[1]; read-out: Activity: APM, Table S1, source 14 = this manuscript
  IC50: 0.0005 µM
[1]; read-out: IC50 in μM ± SD, Table 4, substrate L-leucine-p-nitroanilide, Tris-HCl pH 7.0, 37 °C
  IC50: 0.5 ± 0.2 µM

## CCCCCCC[C@@H](N)[C@H](O)C(=O)N[C@@H](C)C(=O)N[C@H](C(=O)N(C)[C@@H](Cc1ccc(O)cc1)C(=O)N[C@@H](CCc1ccc(O)cc1)C(=O)O)C(C)C [Cyanostatin A] (X10-AV[NMeY][hTyr]-OH)
ACE; ref 9 (Sano et al., Phytochem. 2005)
  IC50: 150 µM
APM; ref 9 (Sano et al., Phytochem. 2005), read-out: Activity: APM
  IC50: 55 µM

## CCCCCCC[C@H](N)[C@H](O)C(=O)N[C@H](C(=O)N(C)[C@H](C(=O)N(C)[C@@H](Cc1ccc(O)cc1)C(=O)N1CCC[C@H]1C(=O)N[C@@H](Cc1ccc(O)cc1)C(=O)O)C(C)C)C(C)C [Microginin 299-C] (X9-V[NMeV][NMeY]PY-OH)
ACE; [8]
  Activity: ACE (ni): ni
APM; ref 4 (Ishida et al., Tetrahedron 1998), read-out: Activity: APM
  IC50: 2.3 µM

## CCCCCCCC(N)C(O)C(=O)N[C@@H](C)C(=O)N[C@H](C(=O)N(C)[C@@H](Cc1ccc(O)cc1)C(=O)N[C@@H](Cc1ccc(O)cc1)C(=O)O)C(C)C (some centres unmarked) [Microginin] (X8-AV[NMeY]Y-OH)
ACE; Table S1, activity named without value, ref 1 (Okino et al., Tetrahedron Lett. 1993)
  Activity: ACE

## CCCCCCCC(N)C(O)C(=O)N[C@@H](C)C(=O)N1CCC[C@H]1C(=O)N[C@@H](Cc1ccc(O)cc1)C(=O)N[C@@H](Cc1ccc(O)cc1)C(=O)O (some centres unmarked) [Microginin T2] (X8-APYY-OH)
ACE; [4]
  IC50: 10 µM
APM; [5]
  IC50: 2.9 µM
